Measured values reported in patent US9555038B2, “Heterocycle-substituted tetracyclic compounds and methods of use thereof for the treatment of viral diseases” (Merck Sharp & Dohme Corp., priority 2013, dated 2017).
Read-outs that look alike come from different tables or passages of the source.

Columns and labels:
HCV replicon 1A = experiment: Cell-based HCV Replicon Assay A, replicon 1A
Procedure, shortened: (§1)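 Three-day exposure of replicon cells (2000/well) to serially diluted compound, 0.5% DMSO, 5% serum. RNA per cell was derived as (Ct − intercept)/slope from replicon total RNA standards, with cyclophilin amplified in the same reaction.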

HCV replicon 1AY93H = experiment: Cell-based HCV Replicon Assay A, replicon 1AY93H
Procedure, shortened: as §1

HCV replicon 2B = experiment: Cell-based HCV Replicon Assay A, replicon 2B
Procedure, shortened: as §1

HCV replicon 1AQ30D = experiment: Cell-based HCV Replicon Assay B, replicon 1AQ30D
Procedure, shortened: (§2)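 EC50 defined as the drug concentration giving a CT increase of 1 above projected baseline, from real-time RT-PCR of replicon RNA using genotype-specific primers and probes. Cells were seeded in 5% FBS, dosed after 24 h and incubated 3 days before lysis.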

HCV replicon 1B = experiment: Cell-based HCV Replicon Assay B, replicon 1B
Procedure, shortened: as §2

[1] = Hepatitis C virus, read-out: 1A Y93H IC50 (nM), replicon 1AY93H
[2] = Hepatitis C virus, read-out: 2B IC50 (nM), replicon 2B
[3] = Hepatitis C virus, read-out: 1A Q30D IC50 (nM), replicon 1AQ30D
[4] = read-out: 1A Y93H IC50, replicon 1AY93H
[5] = read-out: 1A Q30D IC50, replicon 1AQ30D
[6] = replicon 1AY93H, read-out: 1A Y93H IC50
[7] = replicon 1AQ30D, read-out: 1A Q30D IC50

| SMILES | IC50 (HCV replicon 1A; Hepatitis C virus) [pM] | IC50 (HCV replicon 1AY93H; [1]) [nM] | IC50 (HCV replicon 2B; [2]) [nM] | IC50 (HCV replicon 1AQ30D; [3]) [nM] | IC50 (HCV replicon 1B; Hepatitis C virus) [pM] | IC50 (HCV replicon 1A) [pM] | IC50 (HCV replicon 1AY93H; [4]) [nM] | IC50 (HCV replicon 2B; read-out: 2B IC50, replicon 2B) [nM] | IC50 (HCV replicon 1AQ30D; [5]) [nM] | IC50 (HCV replicon 1B) [pM] | IC50 (HCV replicon 1AY93H; [6]) [nM] | IC50 (HCV replicon 2B; replicon 2B, read-out: 2B IC50) [nM] | IC50 (HCV replicon 1AQ30D; [7]) [nM] |
| --- | --- | --- | --- | --- | --- | --- | --- | --- | --- | --- | --- | --- | --- |
| COC(=O)N[C@H](C(=O)N1CCC[C@H]1c1ncc(-c2cc(F)c3c(c2)OC(c2cnc(-c4ccccn4)s2)n2c-3cc3cc(-c4cnc([C@@H]5CCCN5C(=O)[C@@H](NC(=O)OC)C(C)C)[nH]4)ccc32)[nH]1)C(C)C (mixture of isomers) [Compound 407] | 2.7 | 0.143 | 0.192 | 0.482 | 4 | – | – | – | – | – | – | – | – |
| COC(=O)N[C@H](C(=O)N1CCC[C@H]1c1ncc(-c2cc(C)c3c(c2)OC(c2cnc(C4CCC4)s2)n2c-3cc3cc(-c4cnc([C@@H]5CCCN5C(=O)[C@@H](NC(=O)OC)C(C)C)[nH]4)ccc32)[nH]1)C(C)C (single isomer, unassigned) [Compound 204] | 4 | 0.0579 | 0.013 | 0.772 | 2 | – | – | – | – | – | – | – | – |
| COC(=O)NC(C(=O)N1CCC[C@H]1c1ncc(-c2ccc3c(c2)cc2n3C(c3cnc(C4CC4)s3)Oc3cc(-c4cnc([C@@H]5CCCN5C(=O)[C@@H](NC(=O)OC)C(C)C)[nH]4)cc(F)c3-2)[nH]1)C1CCOC(C)(C)C1 (single isomer, unassigned) [Compound 309] | – | – | – | – | – | 1.8 | 0.0218 | 0.003 | 0.047 | 6 | – | – | – |
| COC(=O)NC(C(=O)N1CCC[C@H]1c1ncc(-c2ccc3c(c2)cc2n3C(c3cnc(C4(C)CCCC4)s3)Oc3cc(-c4cnc([C@@H]5CCCN5C(=O)[C@@H](NC(=O)OC)C(C)C)[nH]4)cc(F)c3-2)[nH]1)C1CCOC(C)(C)C1 (single isomer, unassigned) [Compound 471] | – | – | – | – | – | 2.8 | 0.003 | 0.004 | 0.013 | 3.5 | – | – | – |
| CCc1ncc(C2Oc3cc(-c4cnc([C@@H]5CCCN5C(=O)[C@@H](NC(=O)OC)C(C)C)[nH]4)cc(F)c3-c3cc4cc(-c5cnc([C@@H]6C[C@H]7C[C@H]7N6C(=O)[C@@H](CC(=O)OC)C(C)C)[nH]5)ccc4n32)s1 (single isomer, unassigned) [Compound 83] | 3 | – | – | 0.12 | 3 | – | 0.0067 | 0.048 | – | – | – | – | – |
| COC(=O)N[C@H](C(=O)N1CCC[C@H]1c1ncc(-c2cc(F)c3c(c2)OC(c2cnc(C)s2)n2c-3cc3cc(-c4cnc([C@@H]5CCCN5C(=O)[C@@H](NC(=O)OC)C(C)C)[nH]4)ccc32)[nH]1)C(C)C (mixture of isomers) [Compound 416] | 2.2 | 0.085 | 0.119 | 1.77 | 3 | – | – | – | – | – | – | – | – |
| CCCc1ncc(C2Oc3cc(-c4cnc([C@@H]5CCCN5C(=O)[C@@H](NC(=O)OC)C(C)C)[nH]4)cc(F)c3-c3cc4cc(-c5cnc([C@@H]6C[C@H]7C[C@H]7N6C(=O)C(NC(=O)OC)C6C[C@@H](C)O[C@@H](C)C6)[nH]5)ccc4n32)s1 (single isomer, unassigned) [Compound 108] | 2.8 | – | – | – | 4 | – | 0.0033 | 0.007 | 0.016 | – | – | – | – |
| COC(=O)N[C@H](C(=O)N1CCC[C@H]1c1ncc(-c2cc(F)c3c(c2)OC(c2cnc(C4CC4)s2)n2c-3cc3cc(-c4cnc([C@@H]5C[C@H]6C[C@H]6N5C(=O)[C@@H](NC(=O)OC)C(C)C)[nH]4)ccc32)[nH]1)C(C)C (single isomer, unassigned) [Compound 301] | – | – | – | – | – | 1.4 | 0.22 | 0.335 | 2.12 | 4 | – | – | – |
| COC(=O)N[C@H](C(=O)N1CCC[C@H]1c1ncc(-c2cc(C)c3c(c2)OC(c2cnc(C4CCC4)s2)n2c-3cc3cc(-c4cnc([C@@H]5C[C@H]6C[C@H]6N5C(=O)[C@@H](NC(=O)OC)C(C)(C)F)[nH]4)ccc32)[nH]1)C(C)C (single isomer, unassigned) [Compound 210] | 4.9 | 0.0163 | 0.006 | 0.216 | 2 | – | – | – | – | – | – | – | – |
| COC(=O)N[C@H](C(=O)N1CCC[C@H]1c1ncc(-c2cc(F)c3c(c2)OC(c2cnc(C(C)(C)C)s2)n2c-3cc3cc(-c4cnc([C@@H]5CCCN5C(=O)[C@@H](NC(=O)OC)C(C)C)[nH]4)ccc32)[nH]1)C(C)C (single isomer, unassigned) [Compound 302] | 2.9 | – | – | 0.168 | – | – | 0.0071 | 0.077 | – | 1 | – | – | – |
| COC(=O)NC(C(=O)N1[C@@H]2C[C@@H]2C[C@H]1c1ncc(-c2ccc3c(c2)cc2n3C(c3cnc(CC(C)C)s3)Oc3cc(-c4cnc([C@@H]5CCCN5C(=O)[C@@H](NC(=O)OC)C(C)C)[nH]4)cc(F)c3-2)[nH]1)C1CCOC(C)(C)C1 (single isomer, unassigned) [Compound 437] | – | – | – | – | – | 2.2 | – | – | – | 3.1 | 0.176 | 0.21 | 0.283 |
| COC(=O)NC(C(=O)N1CCC[C@H]1c1ncc(-c2ccc3c(c2)cc2n3C(c3cnc(C4CCC4)s3)Oc3cc(-c4cnc([C@@H]5CCCN5C(=O)[C@@H](NC(=O)OC)C(C)C)[nH]4)cc(C)c3-2)[nH]1)C1C[C@@H](C)O[C@@H](C)C1 (single isomer, unassigned) [Compound 219] | – | – | – | 0.096 | 4 | 2.7 | 0.013 | 0.003 | – | – | – | – | – |
| COC(=O)N[C@H](C(=O)N1CCC[C@H]1c1ncc(-c2cc(F)c3c(c2)OC(c2cnc(C4CC4)s2)n2c-3cc3cc(-c4cnc([C@@H]5CC6(C)CC6N5C(=O)[C@@H](NC(=O)OC)C(C)C)[nH]4)ccc32)[nH]1)C(C)C (single isomer, unassigned) [Compound 518] | – | – | – | – | – | 2.5 | – | – | – | 2.4 | 0.016 | 0.015 | 0.099 |
| CCC(CC)c1ncc(C2Oc3cc(-c4cnc([C@@H]5CCCN5C(=O)[C@@H](NC(=O)OC)C(C)C)[nH]4)cc(F)c3-c3cc4cc(-c5cnc([C@@H]6CCCN6C(=O)[C@@H](NC(=O)OC)C(C)C)[nH]5)ccc4n32)s1 (mixture of isomers) [Compound 524] | 3 | 0.008 | 0.105 | 0.183 | 2 | – | – | – | – | – | – | – | – |
| COC(=O)N[C@H](C(=O)N1CCC[C@H]1c1ncc(-c2cc(F)c3c(c2)OC(c2cnc(C4(C)CC4)s2)n2c-3cc3cc(-c4cnc([C@@H]5C[C@H]6C[C@H]6N5C(=O)[C@@H](NC(=O)OC)C(C)C)[nH]4)ccc32)[nH]1)C(C)C (single isomer, unassigned) [Compound 452] | 2.7 | – | – | – | 2.5 | – | 0.004 | 0.04 | 0.093 | – | – | – | – |
| COC(=O)N[C@H](C(=O)N1CCC[C@H]1c1ncc(-c2cc(F)c3c(c2)OC(c2cnc(C4CC4)s2)n2c-3cc3cc(-c4cnc([C@@H]5C[C@H]6C[C@H]6N5C(=O)[C@@H](NC(=O)OC)C(C)C)[nH]4)ccc32)[nH]1)C(C)C (single isomer, unassigned) [Compound 300] | – | – | – | – | 3 | 3 | 0.0041 | 0.011 | 0.066 | – | – | – | – |
| COC(=O)N[C@H](C(=O)N1CCC[C@H]1c1ncc(-c2cc(F)c3c(c2)OC(c2cnc(C4(C)CCCC4)s2)n2c-3cc3cc(-c4cnc([C@@H]5C[C@H]6C[C@H]6N5C(=O)[C@@H](NC(=O)OC)C(C)C)[nH]4)ccc32)[nH]1)C(C)C (single isomer, unassigned) [Compound 454] | 2.3 | – | 0.052 | 0.047 | 3.1 | – | 0.002 | – | – | – | – | – | – |
| COC(=O)NC(C(=O)N1[C@@H]2C[C@@H]2C[C@H]1c1ncc(-c2ccc3c(c2)cc2n3C(c3cnc(C4CCCC4)s3)Oc3cc(-c4cnc([C@@H]5CCCN5C(=O)[C@@H](NC(=O)OC)C(C)C)[nH]4)cc(F)c3-2)[nH]1)C1CCOC(C)(C)C1 (single isomer, unassigned) [Compound 322] | – | – | – | – | – | 2.7 | 0.0512 | 0.058 | 0.324 | 4 | – | – | – |
| COC(=O)NC(C(=O)N1[C@@H]2C[C@@H]2C[C@H]1c1ncc(-c2ccc3c(c2)cc2n3C(c3cnc(C4CCC4)s3)Oc3cc(-c4cnc([C@@H]5CCCN5C(=O)[C@@H](NC(=O)OC)C(C)C)[nH]4)cc(C)c3-2)[nH]1)C1CCOC(C)(C)C1 (single isomer, unassigned) [Compound 223] | 6 | 0.3 | 0.115 | 2.98 | 8 | – | – | – | – | – | – | – | – |
| COC(=O)NC(C(=O)N1CCC[C@H]1c1ncc(-c2ccc3c(c2)cc2n3C(c3cnc(C4(C)CC4)s3)Oc3cc(-c4cnc([C@@H]5CCCN5C(=O)[C@@H](NC(=O)OC)C(C)C)[nH]4)cc(F)c3-2)[nH]1)C1C[C@@H](C)O[C@@H](C)C1 (single isomer, unassigned) [Compound 462] | – | – | – | 0.038 | – | 3.5 | 0.007 | 0.007 | – | 3.1 | – | – | – |
| COC(=O)NC(C(=O)N1CCC[C@H]1c1ncc(-c2ccc3c(c2)cc2n3C(c3cnc(CC(C)C)s3)Oc3cc(-c4cnc([C@@H]5CCCN5C(=O)[C@@H](NC(=O)OC)C(C)C)[nH]4)cc(F)c3-2)[nH]1)C1CCOC(C)(C)C1 (single isomer, unassigned) [Compound 545] | – | – | – | – | – | 2.6 | 0.004 | 0.006 | 0.015 | 2.8 | – | – | – |
